Experimental data published in patent US10053455B2, “Diazaspiroalkaneone-substituted oxazole derivatives as spleen tyrosine kinase inhibitors” (AB SCIENCE, priority 2014, dated 2018).
Where two headings read alike, the source gives them in different places.

Key:
[1] = biological target: Jak3 (Homo sapiens (Human), UniProt P52333); assay: HTRF kinase assay, Jak3; assay type: biochemical; details: enzymatic determination
Procedure: Most of the kinases tested in this study were cloned, expressed and purified in the facilities of the inventors. They were expressed either as N-terminus hexahistidine-, hexahistidine-asparagine- or GST-tagged enzymes in a baculovirus or in a Colibacille expression system. Remaining enzymes (JAKs) were purchased from Millipore or Proqinase. For each enzyme, steady state kinetic parameters were determined and validated with known inhibitors.
The analysis of the effect of compounds on kinase activity was assessed with the HTRF® KinEASE assay (Cisbio International), an immuno-assay based on the quantification of the level of phosphorylation of a biotinylated peptide substrate using anti-phospho-specific antibody labeled with Europium (Eu^3+) cryptate. This assay comprises two steps: —an enzymatic step, during which the peptide substrate, the kinase, ATP, Mg^2+ and/or Mn^2+ are incubated with varying concentration of drug (from 0 to 10 μM); —a detection step, at the end of the reaction (stopped by addition of EDTA which chelates Mg^2+), the antibody anti-phospho peptide-Eu^3+ (emission 620 nm) and streptavidin XL-665 (emission 665 nm) are added to the reaction mix. […] Results are expressed in delta fluorescence (DF) unit defined as follow DF %=[(ratio−ratio blank)/(ratio blank)]*100, where ratio=(665 nm/620 nm)*10^4. […]

[2] = biological target: KIT wild-type (Homo sapiens (Human), UniProt P10721); assay: Cell-based proliferation assay on BaF3 model, KIT wild-type
Sequence of KIT wild-type (P10721 26-976, species assumed): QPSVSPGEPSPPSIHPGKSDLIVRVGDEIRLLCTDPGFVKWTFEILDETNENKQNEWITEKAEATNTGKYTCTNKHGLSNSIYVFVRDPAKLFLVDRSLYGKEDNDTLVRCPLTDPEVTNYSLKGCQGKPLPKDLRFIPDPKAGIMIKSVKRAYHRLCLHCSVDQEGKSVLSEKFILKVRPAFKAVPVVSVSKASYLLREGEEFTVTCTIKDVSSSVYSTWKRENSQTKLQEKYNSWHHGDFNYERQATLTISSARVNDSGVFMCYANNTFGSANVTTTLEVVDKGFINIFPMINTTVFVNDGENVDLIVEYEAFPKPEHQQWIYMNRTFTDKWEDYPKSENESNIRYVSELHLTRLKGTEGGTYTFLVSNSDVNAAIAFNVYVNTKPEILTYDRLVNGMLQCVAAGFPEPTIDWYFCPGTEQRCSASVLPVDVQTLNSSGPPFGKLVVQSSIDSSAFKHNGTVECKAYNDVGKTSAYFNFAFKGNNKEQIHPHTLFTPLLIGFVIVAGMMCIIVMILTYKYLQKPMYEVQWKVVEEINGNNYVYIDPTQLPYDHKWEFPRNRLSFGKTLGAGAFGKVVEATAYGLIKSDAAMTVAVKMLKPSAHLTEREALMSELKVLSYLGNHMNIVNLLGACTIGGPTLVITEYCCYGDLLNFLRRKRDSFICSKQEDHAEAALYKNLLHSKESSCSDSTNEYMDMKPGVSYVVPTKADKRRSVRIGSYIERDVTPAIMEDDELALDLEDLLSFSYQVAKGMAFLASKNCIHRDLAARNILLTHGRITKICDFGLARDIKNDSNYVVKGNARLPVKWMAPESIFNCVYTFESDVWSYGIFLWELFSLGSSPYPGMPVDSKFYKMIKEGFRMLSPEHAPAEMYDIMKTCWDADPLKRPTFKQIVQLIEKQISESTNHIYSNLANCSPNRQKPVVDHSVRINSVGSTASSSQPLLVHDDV
Procedure: Cell-based proliferation and viability assay CellTiter-Bleue cell-based survival/proliferation assay (Promega G8080) was performed on BaF3 models.
A total of 1.10^4 cells/well/50 μl were seeded in a 96-wells plate. Treatment was initiated by addition of a 2× drug solution of ½ serial dilutions ranging from 0 to 10 μM. Cells were grown for 48-72 h at 37° C. and then incubated with 10 μl/well of Promega CellTiter-Bleue reagent for 4 h at 37° C. The amount of formazan dye formed was quantified by its absorbance at 450 nm using a scanning multiwell spectrophotometer (POLARstar Omega, BMG labtech, France). A blank well without cells was used as a background control for the spectrophotometer and all assays were performed in duplicates and the experiments were repeated at least twice.

[3] = tested on: HepG2 tumor cell line; assay: Mitochondrial ToxGlo assay (ATP production and cytotoxicity); assay type: cell-based; details: HepG2, 20 μM, 2 hours
Procedure: Drug-induced mitochondrial toxicity was evaluated by monitoring oxygen consumption using a Clark oxygen electrode on mitochondria isolated from heart of healthy mouse (Mitologics S.A.S, France). Briefly, isolated mitochondria are placed at 37° C. in a sealed chamber that is exposed to the surface of a Clark oxygen electrode. The presence of oxygen caused the electrode to deliver a current to the oxygen monitor, which amplified the current and converted it to a voltage output that was directly proportional to the concentration of oxygen in the chamber. Drug-induced mitochondrial toxicity was also evaluated by monitoring mitochondrial ATP production using a cell-based assay (Mitochondrial ToxGlo™ assay, Promega Corporation (cat#G8000)). […] The test was performed on HepG2 tumor cell line grown in galactose medium in order to force the cancer cells to produce ATP via oxidative phosphorylation (crabtree effect). Cells were treated for 2 hours with 20 μM drug before analysis of ATP detection (Luminescent signal) and cytotoxicity (Fluorescent signal) as described by manufacturers using PHERAstar and POLARstar OMEGA microplate readers respectively (BMG Labteck Sari).

[4] = Early bioavailability determination (plasma PK); assay type: in vivo, Sprague Dawley rats; details: rat; for AUC: read-out: AUC24
Procedure: Early screen was conducted to estimate plasma concentrations of test compounds obtained after oral or intravenous administration to Sprague Dawley rats. DMSO was used as vehicle for oral and intravenous administration. In short, 4 male Sprague Dawley rats around 5 weeks old were used. Drugs were administered PO (10 mg/kg) or IV (2 mg/kg). Blood samples were collected at defined time schedule and analysed using LC-MS/MS determination for PK parameters calculations.

[5] = tested on: Salmonella typhimurium strain TA98; assay: AMES mutagenic assay, TA98 strain
Procedure: Mutagenic activity of test compounds and their metabolites (produced by rat liver S9 fraction) was evaluated in the Salmonella typhimurium strains TA100 and TA98 according to the Ames assay (Toxicology in vitro, (2001), 15: 105-114). […] The results are expressed as a mutagenicity ratio in comparison to solvent controls.
The results are expressed as a ratio of the number of colonies over the number of colonies in the negative control (DMSO).

[6] = male, Sprague Dawley, plasma, IV, 2 mg/kg, mean
[7] = male, Sprague Dawley, plasma, PO, 10 mg/kg, mean
[8] = TA98, absence of S-9, 0.5 μg per well
[9] = TA98, absence of S-9, 1.4 μg per well
[10] = TA98, absence of S-9, 4.1 μg per well
[11] = TA98, absence of S-9, 12.3 μg per well
[12] = TA98, absence of S-9, 37 μg per well
[13] = TA98, absence of S-9, 111.1 μg per well
[14] = TA98, absence of S-9, 333.3 μg per well
[15] = TA98, absence of S-9, 1000 μg per well
[16] = TA98, presence of S-9, 0.5 μg per well
[17] = TA98, presence of S-9, 1.4 μg per well
[18] = TA98, presence of S-9, 4.1 μg per well
[19] = TA98, presence of S-9, 12.3 μg per well
[20] = TA98, presence of S-9, 37 μg per well
[21] = TA98, presence of S-9, 111.1 μg per well
[22] = TA98, presence of S-9, 333.3 μg per well
[23] = TA98, presence of S-9, 1000 μg per well

Sequence of Jak3 (P52333 whole entry): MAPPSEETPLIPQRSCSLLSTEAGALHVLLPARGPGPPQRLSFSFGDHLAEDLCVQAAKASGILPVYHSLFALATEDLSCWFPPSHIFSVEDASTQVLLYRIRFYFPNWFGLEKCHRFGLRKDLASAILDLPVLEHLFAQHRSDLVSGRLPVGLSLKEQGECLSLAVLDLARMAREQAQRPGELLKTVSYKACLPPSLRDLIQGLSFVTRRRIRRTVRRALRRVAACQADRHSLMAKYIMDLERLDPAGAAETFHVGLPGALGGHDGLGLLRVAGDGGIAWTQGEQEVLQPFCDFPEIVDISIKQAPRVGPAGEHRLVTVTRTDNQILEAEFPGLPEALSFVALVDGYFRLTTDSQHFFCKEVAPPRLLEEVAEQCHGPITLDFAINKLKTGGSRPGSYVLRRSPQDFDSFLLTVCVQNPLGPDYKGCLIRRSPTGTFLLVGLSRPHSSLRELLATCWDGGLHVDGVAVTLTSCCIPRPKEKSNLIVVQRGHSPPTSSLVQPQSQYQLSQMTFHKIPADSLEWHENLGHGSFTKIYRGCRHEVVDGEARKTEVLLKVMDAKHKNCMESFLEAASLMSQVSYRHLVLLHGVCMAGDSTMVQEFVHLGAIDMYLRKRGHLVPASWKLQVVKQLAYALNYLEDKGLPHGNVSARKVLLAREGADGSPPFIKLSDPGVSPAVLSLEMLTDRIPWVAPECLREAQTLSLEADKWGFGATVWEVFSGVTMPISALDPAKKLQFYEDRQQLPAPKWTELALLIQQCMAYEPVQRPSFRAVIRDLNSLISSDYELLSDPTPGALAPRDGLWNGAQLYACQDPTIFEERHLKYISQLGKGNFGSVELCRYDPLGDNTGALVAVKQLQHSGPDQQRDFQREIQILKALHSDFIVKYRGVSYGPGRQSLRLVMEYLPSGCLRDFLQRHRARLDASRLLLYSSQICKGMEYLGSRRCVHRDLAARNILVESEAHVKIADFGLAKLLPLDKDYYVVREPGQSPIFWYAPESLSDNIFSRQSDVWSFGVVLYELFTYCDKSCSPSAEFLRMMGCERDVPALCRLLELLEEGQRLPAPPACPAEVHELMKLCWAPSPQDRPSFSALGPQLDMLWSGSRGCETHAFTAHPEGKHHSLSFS

For `Cc1ccnc(Nc2cccc(-c3cnc(N4CCNC(=O)C45CC5)o3)c2)n1` [Compound 001, 4-{5-[3-(4-Methyl-pyrimidin-2-ylamino)-phenyl]-oxazol-2-yl}-4,7-diaza-spiro[2.5]octan-8-one], the IC50 [1] was 20 µM, the IC50 [2] was 10 µM and the “ATP production relative to DMSO (100%) Mito ToxGlo” value [3] was 104%. The “Cytotoxicity relative to DMSO (0%) Mito ToxGlo” value [3] was 11%, the “ATP production relative to DMSO (100%) Mito ToxGlo” value ([3]; listed as compound 001) was 104% and the “Cytotoxicity relative to DMSO (0%) Mito ToxGlo” value ([3]; listed as compound 001) was 11%. For the same compound, the Cl ([4]; PO, 10 mg/kg, mean) was 17 mL/min/kg, the Vd ([4]; PO, 10 mg/kg, mean) was 2.9 L/kg and the Cmax [4, 6] was 869 ng/mL. It also gave a Tmax [4, 6] of 0.083 h, a clearance [4, 6] of 15 mL/min/kg and a half-life [4, 6] of 0.6 h. The AUC [4, 6] was 1060 ng·h/mL, the Vd ([4]; male, Sprague Dawley, plasma, IV, 2 mg/kg, mean, read-out: Vd) was 0.9 L/kg and the bioavailability ([4]; male, Sprague Dawley, plasma, PO 10 mg/kg vs IV 2 mg/kg, read-out: F24 (absolute bioavailability)) was 97.5%. For the same compound, the Cmax [4, 7] was 122 ng/mL, the Tmax [4, 7] was 3 h and the half-life [4, 7] was 2.1 h. For the same compound, the AUC [4, 7] was 1030 ng·h/mL, the “Mean revertant colony counts” value [5, 8] was 7.3 and the Ratio treated/solvent [5, 8] was 1.7. The “Mean revertant colony counts” value [5, 9] was 4.3, the Ratio treated/solvent [5, 9] was 1.0 and the “Mean revertant colony counts” value [5, 10] was 6.3. For the same compound, the Ratio treated/solvent [5, 10] was 1.5, the “Mean revertant colony counts” value [5, 11] was 5.3 and the Ratio treated/solvent [5, 11] was 1.2. The “Mean revertant colony counts” value [5, 12] was 8.3, the Ratio treated/solvent [5, 12] was 1.9 and the “Mean revertant colony counts” value [5, 13] was 6.3. For the same compound, the Ratio treated/solvent [5, 13] was 1.5, the “Mean revertant colony counts” value [5, 14] was 4.3 and the Ratio treated/solvent [5, 14] was 1.0. The “Mean revertant colony counts” value [5, 15] was 3.7, the Ratio treated/solvent [5, 15] was 0.8 and the “Mean revertant colony counts” value [5, 16] was 10.3. For the same compound, the Ratio treated/solvent [5, 16] was 3.9, the “Mean revertant colony counts” value [5, 17] was 7.3 and the Ratio treated/solvent [5, 17] was 2.8. For the same compound, the “Mean revertant colony counts” value [5, 18] was 9.3, the Ratio treated/solvent [5, 18] was 3.5 and the “Mean revertant colony counts” value [5, 19] was 6.7. For the same compound, the Ratio treated/solvent [5, 19] was 2.5, the “Mean revertant colony counts” value [5, 20] was 5.7 and the Ratio treated/solvent [5, 20] was 2.1. For the same compound, the “Mean revertant colony counts” value [5, 21] was 7.3, the Ratio treated/solvent [5, 21] was 2.8 and the “Mean revertant colony counts” value [5, 22] was 6.3. For the same compound, the Ratio treated/solvent [5, 22] was 2.4, the “Mean revertant colony counts” value [5, 23] was 5.0 and the Ratio treated/solvent [5, 23] was 1.9. The mutagenic activity ([5]; TA98, with or without liver metabolic activation system (S9 mix)) was “did not show any mutagenic activity”.
